According to ChEMBL document CHEMBL2046330, “Structure-based design of novel benzoxazinorifamycins with potent binding affinity to wild-type and rifampin-resistant mutant Mycobacterium tuberculosis RNA polymerases” (J Med Chem, 2012):

How the values were obtained:
[1] = test system: Mycobacterium tuberculosis; test: Ratio of rifalazil IC50 to compound IC50 for Mycobacterium tuberculosis RNA polymerase D435V mutant in the presence of sigmaA factor
[2] = Inhibition of Mycobacterium tuberculosis RNA polymerase D435V mutant by rolling circle transcription assay in the presence of sigmaA factor
[3] = Inhibition of Mycobacterium tuberculosis RNA polymerase S450L mutant by rolling circle transcription assay in the presence of sigmaA factor
[4] = Inhibition of Mycobacterium tuberculosis RNA polymerase H445Y mutant by rolling circle transcription assay in the presence of sigmaA factor
[5] = test system: Mycobacterium tuberculosis; test: Ratio of rifalazil IC50 to compound IC50 for Mycobacterium tuberculosis RNA polymerase S450L mutant in the presence of sigmaA factor
[6] = Inhibition of Mycobacterium tuberculosis RNA polymerase H445Y mutant by rolling circle transcription assay in the absence of sigmaA factor
[7] = Inhibition of Mycobacterium tuberculosis RNA polymerase D435V mutant by rolling circle transcription assay in the absence of sigmaA factor
[8] = Inhibition of Mycobacterium tuberculosis RNA polymerase S450L mutant by rolling circle transcription assay in the absence of sigmaA factor

Structure (SMILES) | Ratio IC50 [1] | IC50 [2] [µM] | IC50 [3] [µM] | IC50 [4] [µM] | Ratio IC50 [5] | IC50 [6] [µM] | IC50 [7] [µM] | IC50 [8] [µM]
CCN(CC)CCOc1cccc2oc3c4c(=O)c5c(O)c(C)c6c(c5c-3nc12)C(=O)[C@@](C)(O/C=C/[C@H](OC)[C@@H](C)[C@@H](OC(C)=O)[C@H](C)[C@H](O)[C@H](C)[C@@H](O)[C@@H](C)/C=C/C=C(/C)C(=O)N4)O6 | 26 | 20 | 16 | 171 | 7 | – | – | –
CO[C@H]1/C=C/O[C@@]2(C)Oc3c(C)c(O)c4c(=O)c(c5oc6cc(N7CCN(CC(C)C)CC7)cc(O)c6nc-5c4c3C2=O)NC(=O)/C(C)=C\C=C\[C@H](C)[C@H](O)[C@@H](C)[C@@H](O)[C@@H](C)[C@H](OC(C)=O)[C@@H]1C [RIFALAZIL] | – | 541 | 117 | 172 | – | – | – | –
CO[C@H]1/C=C/O[C@@]2(C)Oc3c(C)c(O)c4c(=O)c(c5oc6cccc(OCCCCN7CCN(C(=O)Cn8ccnc8)CC7)c6nc-5c4c3C2=O)NC(=O)/C(C)=C\C=C\[C@H](C)[C@H](O)[C@@H](C)[C@@H](O)[C@@H](C)[C@H](OC(C)=O)[C@@H]1C | 26 | 13 | 122 | 574 | – | – | – | –
CO[C@H]1/C=C/O[C@@]2(C)Oc3c(C)c(O)c4c(O)c(c(/C=N/N5CCN(C)CC5)c(O)c4c3C2=O)NC(=O)/C(C)=C\C=C\[C@H](C)[C@H](O)[C@@H](C)[C@@H](O)[C@@H](C)[C@H](OC(C)=O)[C@@H]1C [RIFAMPIN] | – | – | – | – | – | 830 | 313 | 126
CO[C@H]1/C=C/O[C@@]2(C)Oc3c(C)c(O)c4c(=O)c(c5oc6cccc(OCCCCN7CCN(CCn8ccnc8)CC7)c6nc-5c4c3C2=O)NC(=O)/C(C)=C\C=C\[C@H](C)[C@H](O)[C@@H](C)[C@@H](O)[C@@H](C)[C@H](OC(C)=O)[C@@H]1C | 26 | 9 | 18 | 437 | 7 | – | – | –
